# Test results taken from patent publication US20150307938A1, “METHOD TO IDENTIFY A NOVEL CLASS OF IMMUNOLOGIC ADJUVANTS” (Lancell, L.L.C., priority 2011, published 2015).
# Test system: skin
# Assay: Affymetrix microarray of skin, DBP-4 hr and analogs vs. untreated; gene selection by log-2 fold change, Wilcoxon, Kendall tau (Tables 8, 9)
# Assay type: in vivo, mouse
smiles,measurement,setting,value
"CCCCOC(=O)c1ccccc1C(=O)OCCCC [DBP, dibutylphthalate]",Wilcoxon: Pigp,"gene Pigp, NM_019543_at, DBP-4 hr vs. untreated",No
same,Kendall: Pigp,"gene Pigp, NM_019543_at, gene expression vs. output",Yes
same,Wilcoxon: Pkp4,"gene Pkp4, NM_026361_at, DBP-4 hr vs. untreated",No
same,Kendall: Pkp4,"gene Pkp4, NM_026361_at, gene expression vs. output",Yes
same,Wilcoxon: Plk3,"gene Plk3, NM_013807_at, DBP-4 hr vs. untreated",No
same,Kendall: Plk3,"gene Plk3, NM_013807_at, gene expression vs. output",Yes
same,Wilcoxon: Polr2g,"gene Polr2g, NM_026329_at, DBP-4 hr vs. untreated",No
same,Kendall: Polr2g,"gene Polr2g, NM_026329_at, gene expression vs. output",Yes
same,Wilcoxon: Pparg,"gene Pparg, NM_011146_at, DBP-4 hr vs. untreated",No
same,Kendall: Pparg,"gene Pparg, NM_011146_at, gene expression vs. output",Yes
same,Wilcoxon: Ppp1r7,"gene Ppp1r7, NM_023200_at, DBP-4 hr vs. untreated",No
same,Kendall: Ppp1r7,"gene Ppp1r7, NM_023200_at, gene expression vs. output",Yes
same,Wilcoxon: Prokr1,"gene Prokr1, NM_021381_at, DBP-4 hr vs. untreated",No
same,Kendall: Prokr1,"gene Prokr1, NM_021381_at, gene expression vs. output",Yes
same,Wilcoxon: Ptpn1,"gene Ptpn1, NM_011201_at, DBP-4 hr vs. untreated",No
same,Kendall: Ptpn1,"gene Ptpn1, NM_011201_at, gene expression vs. output",Yes
same,Wilcoxon: Rabgef1,"gene Rabgef1, NM_019983_at, DBP-4 hr vs. untreated",No
same,Kendall: Rabgef1,"gene Rabgef1, NM_019983_at, gene expression vs. output",Yes
same,Wilcoxon: Rai12,"gene Rai12, NM_018740_at, DBP-4 hr vs. untreated",No
same,Kendall: Rai12,"gene Rai12, NM_018740_at, gene expression vs. output",Yes
same,Wilcoxon: Rbbp6,"gene Rbbp6, NM_011247_at, DBP-4 hr vs. untreated",No
same,Kendall: Rbbp6,"gene Rbbp6, NM_011247_at, gene expression vs. output",Yes
same,Wilcoxon: Rpl7l1,"gene Rpl7l1, NM_025433_at, DBP-4 hr vs. untreated",No
same,Kendall: Rpl7l1,"gene Rpl7l1, NM_025433_at, gene expression vs. output",Yes
same,Wilcoxon: Sema4d,"gene Sema4d, NM_013660_at, DBP-4 hr vs. untreated",No
same,Kendall: Sema4d,"gene Sema4d, NM_013660_at, gene expression vs. output",Yes
same,Wilcoxon: Siae,"gene Siae, NM_011734_at, DBP-4 hr vs. untreated",No
same,Kendall: Siae,"gene Siae, NM_011734_at, gene expression vs. output",Yes
same,Wilcoxon: Sirt1,"gene Sirt1, NM_019812_at, DBP-4 hr vs. untreated",No
same,Kendall: Sirt1,"gene Sirt1, NM_019812_at, gene expression vs. output",Yes
same,Wilcoxon: Slc9a3r1,"gene Slc9a3r1, NM_012030_at, DBP-4 hr vs. untreated",No
same,Kendall: Slc9a3r1,"gene Slc9a3r1, NM_012030_at, gene expression vs. output",Yes
same,Wilcoxon: Slc30a4,"gene Slc30a4, NM_011774_at, DBP-4 hr vs. untreated",No
same,Kendall: Slc30a4,"gene Slc30a4, NM_011774_at, gene expression vs. output",Yes
same,Wilcoxon: Slc35a1,"gene Slc35a1, NM_011895_at, DBP-4 hr vs. untreated",No
same,Kendall: Slc35a1,"gene Slc35a1, NM_011895_at, gene expression vs. output",Yes
same,Wilcoxon: Smarcb1,"gene Smarcb1, NM_011418_at, DBP-4 hr vs. untreated",No
same,Kendall: Smarcb1,"gene Smarcb1, NM_011418_at, gene expression vs. output",Yes
same,Wilcoxon: Srsf6,"gene Srsf6, NM_026499_at, DBP-4 hr vs. untreated",No
same,Kendall: Srsf6,"gene Srsf6, NM_026499_at, gene expression vs. output",Yes
same,Wilcoxon: Stx17,"gene Stx17, NM_026343_at, DBP-4 hr vs. untreated",No
same,Kendall: Stx17,"gene Stx17, NM_026343_at, gene expression vs. output",Yes
same,Wilcoxon: Tmed1,"gene Tmed1, NM_010744_at, DBP-4 hr vs. untreated",No
same,Kendall: Tmed1,"gene Tmed1, NM_010744_at, gene expression vs. output",Yes
same,Wilcoxon: Tmem208,"gene Tmem208, NM_025486_at, DBP-4 hr vs. untreated",No
same,Kendall: Tmem208,"gene Tmem208, NM_025486_at, gene expression vs. output",Yes
same,Wilcoxon: Tnfrsf1a,"gene Tnfrsf1a, NM_011609_at, DBP-4 hr vs. untreated",No
same,Kendall: Tnfrsf1a,"gene Tnfrsf1a, NM_011609_at, gene expression vs. output",Yes
same,Wilcoxon: Tnfrsf9,"gene Tnfrsf9, NM_011612_at, DBP-4 hr vs. untreated",No
same,Kendall: Tnfrsf9,"gene Tnfrsf9, NM_011612_at, gene expression vs. output",Yes
same,Wilcoxon: Trappc2l,"gene Trappc2l, NM_021502_at, DBP-4 hr vs. untreated",No
same,Kendall: Trappc2l,"gene Trappc2l, NM_021502_at, gene expression vs. output",Yes
same,Wilcoxon: Tril,"gene Tril, NM_025817_at, DBP-4 hr vs. untreated",No
same,Kendall: Tril,"gene Tril, NM_025817_at, gene expression vs. output",Yes
same,Wilcoxon: Trim12a,"gene Trim12a, NM_023835_at, DBP-4 hr vs. untreated",No
same,Kendall: Trim12a,"gene Trim12a, NM_023835_at, gene expression vs. output",Yes
same,Wilcoxon: Trip4,"gene Trip4, NM_019797_at, DBP-4 hr vs. untreated",No
same,Kendall: Trip4,"gene Trip4, NM_019797_at, gene expression vs. output",Yes
same,Wilcoxon: Trp63,"gene Trp63, NM_011641_at, DBP-4 hr vs. untreated",No
same,Kendall: Trp63,"gene Trp63, NM_011641_at, gene expression vs. output",Yes
same,Wilcoxon: Trpv2,"gene Trpv2, NM_011706_at, DBP-4 hr vs. untreated",No
same,Kendall: Trpv2,"gene Trpv2, NM_011706_at, gene expression vs. output",Yes
same,Wilcoxon: Tsn,"gene Tsn, NM_011650_at, DBP-4 hr vs. untreated",No
same,Kendall: Tsn,"gene Tsn, NM_011650_at, gene expression vs. output",Yes
same,Wilcoxon: Ufc1,"gene Ufc1, NM_025388_at, DBP-4 hr vs. untreated",No
same,Kendall: Ufc1,"gene Ufc1, NM_025388_at, gene expression vs. output",Yes
same,Wilcoxon: Ulk2,"gene Ulk2, NM_013881_at, DBP-4 hr vs. untreated",No
same,Kendall: Ulk2,"gene Ulk2, NM_013881_at, gene expression vs. output",Yes
same,Wilcoxon: Wbp1,"gene Wbp1, NM_016757_at, DBP-4 hr vs. untreated",No
same,Kendall: Wbp1,"gene Wbp1, NM_016757_at, gene expression vs. output",Yes
same,Wilcoxon: Zfp68,"gene Zfp68, NM_013844_at, DBP-4 hr vs. untreated",No
same,Kendall: Zfp68,"gene Zfp68, NM_013844_at, gene expression vs. output",Yes
same,Wilcoxon: Zfp90,"gene Zfp90, NM_011764_at, DBP-4 hr vs. untreated",No
same,Kendall: Zfp90,"gene Zfp90, NM_011764_at, gene expression vs. output",Yes
same,Wilcoxon: Zkscan3,"gene Zkscan3, NM_023685_at, DBP-4 hr vs. untreated",No
same,Kendall: Zkscan3,"gene Zkscan3, NM_023685_at, gene expression vs. output",Yes
same,Wilcoxon: Zkscan6,"gene Zkscan6, NM_026107_at, DBP-4 hr vs. untreated",No
same,Kendall: Zkscan6,"gene Zkscan6, NM_026107_at, gene expression vs. output",Yes
same,1110032A04Rik NM_133675_at ≧2-Fold change,"mouse, in vivo",No
same,1600029D21Rik (NM_029639_at) ≧2-Fold change,"mouse, in vivo",Yes
same,2010002N04Rik (NM_134133_at) ≧2-Fold change,"mouse, in vivo",Yes
same,2310016C08Rik (NM_023516_at) ≧2-Fold change,"mouse, in vivo",Yes
same,2510002D24Rik NM_001033164_at ≧2-Fold change,"mouse, in vivo",No
same,2510009E07Rik NM_001001881_at ≧2-Fold change,"mouse, in vivo",No
same,2610528A11Rik XR_105647_at ≧2-Fold change,"mouse, in vivo",No
same,1500015010Rik NM_024283_at ≧2-Fold change,"mouse, in vivo",No
same,1810011010Rik (NM_026931_at) ≧2-Fold change,"mouse, in vivo",Yes
same,3110079015Rik NM_028473_at ≧2-Fold change,"mouse, in vivo",No
same,A2m NM_175628_at ≧2-Fold change,"mouse, in vivo",No
